Assay results published in patent publication US7977362B2, “Alpha-(N-benzenesulfonamido)cycloalkyl derivatives” (Bristol-Myers Squibb Company, priority 2009, dated 2011).

Tested on: Aβ formation (γ-secretase) in H4 cells stably transfected to overexpress the HPLAP-APP fusion protein
Experiment: In vitro assay based on the inhibition of Aβ formation in cultured cells
Assay type: cell-based, human
Settings: H4 cells overexpressing HPLAP-APP, 18 hrs incubation at 37° C., Aβ in supernatant by time-resolved fluorescence
Experimental: Cultured human cell lines, such as HEK293 and H4 cells, which express APP and γ-secretase activity or transfected derivative cell lines that overexpress wild-type APP, mutant APP, or APP fusion proteins will secrete Aβ peptides into the culture media that can be quantified as previously outlined (Dovey, H. et al., J. Neurochem., 76:173-181 (2001)). The incubation of these cultured cells with γ-secretase inhibitors decreases the production of Aβ peptides. For instance, H4 cells stably transfected to overexpress the HPLAP-APP fusion protein described above were grown as above, detached, and adjusted to 2×10^5 cells/ml. 100 μl of the resulting suspension was then added to each well of a 96-well plate. After 4 hrs, the media was removed and replaced with 100 μl serum-free media containing various dilutions of the test compound. Plates were then incubated for 18 hrs at 37° C. and a 100 μl aliquot of the tissue culture supernatant was removed for determination of Aβ levels using time-resolved fluorescence of the homogenous sample as outlined above. Alternately, the other methods described above for Aβ determination could be used. The extent of Aβ inhibition was used to calculate the IC50 value for the test compound.
In the table, an inhibitory concentration (IC50) of less than or equal to 50 nM is represented by +++; between 50 nM and 500 nM by ++; between 500 nM and 5000 nM by +.

[1] = Homo sapiens, 18 h, class symbols

| IC50 [1] | Compound | also measured |
| --- | --- | --- |
| ≤ 50 nM | O=S(=O)(c1ccc(Cl)cc1)N(Cc1ccc(-c2ncon2)cc1F)[C@@H]1CCCC[C@H]1CO (relative stereo) [Compound 8, 4-Chloro-N-(2-fluoro-4-(1,2,4-oxadiazol-3-yl)benzyl)-N-(trans-2-(hydroxymethyl)cyclohexyl)benzenesulfonamide] | – |
| 50 to 500 nM | O=S(=O)(c1ccc(Cl)cc1)N(Cc1ccc(-c2ncco2)cc1)[C@@H]1CCC[C@H]1CO (relative stereo) [Compound 1, 4-Chloro-N-(trans-2-(hydroxymethyl)cyclopentyl)-N-(4-(oxazol-2-yl)benzyl)benzenesulfonamide] | – |
| 500 to 5000 nM | O=S(=O)(N[C@@H]1CCCC[C@H]1CO)c1ccc(Cl)cc1 (single isomer, unassigned) [Compound 15] | – |
| ≤ 50 nM | CC(O)[C@@H]1CCCC[C@H]1N(Cc1ccc(-c2ncco2)cc1F)S(=O)(=O)c1ccc(Cl)cc1 (single isomer, unassigned) [Compound 25] | – |
| ≤ 50 nM | O=S(=O)(c1ccc(Cl)cc1)N(Cc1ccc(-c2ncco2)c(F)c1F)[C@@H]1CCCC[C@H]1CO (relative stereo) [Compound 9, 4-Chloro-N-(2,3-difluoro-4-(oxazol-2-yl)benzyl)-N-(trans-2-(hydroxymethyl)cyclohexyl)benzenesulfonamide] | – |
| ≤ 50 nM | O=S(=O)(c1ccc(Cl)cc1)N(Cc1ccc(-c2ncco2)cc1F)[C@@H]1CCCC[C@H]1CO [Compound 19, 4-Chloro-N-(2-fluoro-4-(oxazol-2-yl)benzyl)-N-((1R,2R)-2-(hydroxymethyl)cyclohexyl)benzenesulfonamide] | – |
| – | O=S(=O)(c1ccc(Cl)cc1)N(Cc1cc(F)c(-c2ncon2)cc1F)[C@@H]1CCCC[C@H]1CO (relative stereo) [Compound 11, 4-Chloro-N-(2,5-difluoro-4-(1,2,4-oxadiazol-3-yl)benzyl)-N-(trans-2-(hydroxymethyl)cyclohexyl)benzenesulfonamide] | IC50 (numeric values): 0.32 nM |
| ≤ 50 nM | O=S(=O)(c1ccc(Cl)cc1)N(Cc1ccc(-c2ncco2)cc1)[C@@H]1CCCCC[C@H]1CO (relative stereo) [Compound 30, 4-Chloro-N-(trans-2-(hydroxymethyl)cycloheptyl)-N-(4-(oxazol-2-yl)benzyl)benzenesulfonamide] | – |
| ≤ 50 nM | O=S(=O)(c1ccc(Cl)cc1)N(Cc1ccc(-c2ncon2)cc1)[C@@H]1CCCC[C@H]1CO (single isomer, unassigned) [Compound 6, N-(4-(1,2,4-oxadiazol-3-yl)benzyl)-4-chloro-N-(trans-2-(hydroxymethyl)cyclohexyl)benzenesulfonamide] | – |
| – | O=S(=O)(c1ccc(Cl)cc1)N(Cc1ccc(-c2ncon2)cc1)[C@@H]1CCCC[C@H]1CO [Compound 17, N-(4-(1,2,4-Oxadiazol-3-yl)benzyl)-4-chloro-N-((1R,2R)-2-(hydroxymethyl)cyclohexyl)benzenesulfonamide] | IC50 (class symbols): ≤ 50 nM |
| 500 to 5000 nM | O=S(=O)(c1ccc(Cl)cc1)N(Cc1ccc(-c2ncon2)cc1)C1(CO)CCCCC1 [Compound 37, N-(4-(1,2,4-Oxadiazol-3-yl)benzyl)-4-chloro-N-(1-(hydroxymethyl)cyclohexyl)benzenesulfonamide] | – |
| – | O=S(=O)(c1ccc(Cl)cc1)N(Cc1ccc(-c2ncco2)cc1)C1(CO)CCCCC1 [Compound 36, 4-Chloro-N-(1-(hydroxymethyl)cyclohexyl)-N-(4-(oxazol-2-yl)benzyl)benzenesulfonamide] | IC50 (Homo sapiens, 18 h, numeric values): 346 nM |
| ≤ 50 nM | O=S(=O)(c1ccc(Cl)cc1)N(Cc1ccc(-c2ncco2)cc1F)[C@@H]1CCCC[C@H]1CF [Compound 22, 4-Chloro-N-(2-fluoro-4-(oxazol-2-yl)benzyl)-N-((1R,2R)-2-(fluoromethyl)cyclohexyl)benzenesulfonamide] | – |
| ≤ 50 nM | O=S(=O)(c1ccc(Cl)cc1)N(Cc1ccc(-c2ncon2)cc1)[C@@H]1CCCCC[C@@H]1CO (relative stereo) [Compound 32, N-(4-(1,2,4-Oxadiazol-3-yl)benzyl)-4-chloro-N-(cis-2-(hydroxymethyl)cycloheptyl)benzenesulfonamide] | – |
